Assay results taken from patent publication US9976141B2, “Compositions and methods for inhibiting gene expression of Hif2alpha” (Arrowhead Madison Inc., priority 2015, dated 2018).
Strand notation (5' to 3'): a small letter for the sugar, then the base; units joined by * are phosphorothioate-linked, units joined directly phosphodiester-linked; [ ] holds rarer units or linkages, { } end groups; capitals alone tell only the bases. d = 2'-deoxy (DNA); m = 2'-O-methyl; f = 2'-fluoro

Test system: human EPAS1 (Hif2α) cDNA in psiCHECK2 (Renilla luciferase/EPAS1 fusion mRNA) in Hep3B cells
Test: Efficacy screen of Hif2α RNAi triggers in vitro, dual-luciferase reporter assay (1 nM and 0.1 nM)
Type: cell-based
Conditions: Hep3B cells co-transfected with EPAS1-psiCHECK2, Renilla luciferase normalized to firefly luciferase
Description: Candidate sequences were identified by in silico analysis and screened as chemically modified canonical siRNAs in vitro. For screening purposes, the human EPAS1 (Hif2α) cDNA sequence (accession #NM 001430) was synthesized and cloned (DNA 2.0, Menlo Park, Calif.) into a commercially-available reporter-based screening plasmid, psiCHECK2 (Promega, Madison, Wis.) which generated a Renilla luciferase/EPAS1 fusion mRNA. For RNAi trigger efficacy evaluation, Hep3B cells, a human hepatocellular carcinoma line, were plated at 10,000 cells per well in 96-well format. Each of the 187 EPAS1 RNAi triggers, in two subsets, was co-transfected at two concentrations, 1 nM and 0.1 nM, with 25 ng EPAS1-psiCHECK2 plasmid DNA per well and 0.2 μL LipoFectamine 2000 (Life Technologies) per well. Gene knockdown was determined by measuring Renilla luciferase levels normalized to the levels of constitutively-expressed firefly luciferase, also present on the psiCHECK-2 plasmid, using the Dual Luciferase Reporter Assay (Promega, Madison, Wis.) Table 5.

Row | Substance | Relative Rluc-Hif2α (0.1 nM RNAi trigger) | Relative Rluc-Hif2α (1 nM RNAi trigger)
1 | 2271 (sense fGmAfAmUfUmCfUmAfCmCfAmUfGmCfGmCfUmAfAdT; antisense dTfUmAfGmCfGmCfAmUfGmGfUmAfGmAfAmUfUmCdT*dT; siRNA) [compound 2271] | 1.056 ± 0.291 | 0.930 ± 0.094
2 | 2414 (sense fUmAfAmCfUmGfUmAfUmGfGmGfAmGfCmUfUmAfAdT; antisense dTfUmAfAmGfCmUfCmCfCmAfUmAfCmAfGmUfUmAdT*dT; siRNA) [compound 2414] | 0.422 ± 0.070 | 0.167 ± 0.038
3 | 2404 (sense fCmUfGmUfCmAfAmCfGmUfAmAfCmGfAmUfUmUfAdT; antisense dTfAmAfAmUfCmGfUmUfAmCfGmUfUmGfAmCfAmGdT*dT; siRNA) [compound 2404] | 0.234 ± 0.045 | 0.104 ± 0.019
4 | 2258 (sense fCmAfCmGfGmUfCmAfCmCfAmAfCmAfGmAfGmGfAdT; antisense dTfCmCfUmCfUmGfUmUfGmGfUmGfAmCfCmGfUmGdT*dT; siRNA) [compound 2258] | 0.882 ± 0.098 | 0.972 ± 0.168
5 | 2413 (sense fUmAfUmAfAmCfUmGfUmAfUmGfGmGfAmGfCmUfAdT; antisense dTfAmGfCmUfCmCfCmAfUmAfCmAfGmUfUmAfUmAdT*dT; siRNA) [compound 2413] | 0.675 ± 0.104 | 0.317 ± 0.055
6 | 2312 (sense fCmAfCmAfAmAfGmUfGmGfGmCfCmGfUmCfGmGfAdT; antisense dTfCmCfGmAfCmGfGmCfCmCfAmCfUmUfUmGfUmGdT*dT; siRNA) [compound 2312] | 0.899 ± 0.124 | 0.725 ± 0.173
7 | 2249 (sense fGmGfAmCfAmUfAmGfUmAfUmCfUmUfUmGfAmCfAdT; antisense dTfGmUfCmAfAmAfGmAfUmAfCmUfAmUfGmUfCmCdT*dT; siRNA) [compound 2249] | 0.303 ± 0.042 | 0.190 ± 0.028
8 | 2348 (sense fCmCfAmCfGmGfCmCfUmGfUmAfCmGfGmAfCmAfAdT; antisense dTfUmGfUmCfCmGfUmAfCmAfGmGfCmCfGmUfGmGdT*dT; siRNA) [compound 2348] | 0.840 ± 0.270 | 0.454 ± 0.096
9 | 2390 (sense fAmCfUmAfUmUfUmAfGmUfAmAfGmCfCmCfGmGfAdT; antisense dTfCmCfGmGfGmCfUmUfAmCfUmAfAmAfUmAfGmUdT*dT; siRNA) [compound 2390] | 0.772 ± 0.175 | 0.568 ± 0.108
10 | 2233 (sense fUmCfCmGfAmCfUmCfCmCfAmGfCmAfUmUfCmGfAdT; antisense dTfCmGfAmAfUmGfCmUfGmGfGmAfGmUfCmGfGmAdT*dT; siRNA) [compound 2233] | 0.913 ± 0.019 | 0.862 ± 0.125
11 | 2302 (sense fCmUfUmUfGmAfUmGfCmCfGmGfAmAfGmCfAmAfAdT; antisense dTfUmUfGmCfUmUfCmCfGmGfCmAfUmCfAmAfAmGdT*dT; siRNA) [compound 2302] | 0.414 ± 0.019 | 0.147 ± 0.028
12 | 2291 (sense fUmCfGmGfGmAfAmUfCmAfGmAfAmCfUmUfCmGfAdT; antisense dTfCmGfAmAfGmUfUmCfUmGfAmUfUmCfCmCfGmAdT*dT; siRNA) [compound 2291] | 0.911 ± 0.092 | 0.434 ± 0.046
13 | 2323 (sense fAmCfAmAfGmCfCmAfCmUfGmAfGmCfGmCfAmAfAdT; antisense dTfUmUfGmCfGmCfUmCfAmGfUmGfGmCfUmUfGmUdT*dT; siRNA) [compound 2323] | 0.631 ± 0.085 | 0.664 ± 0.166
14 | 2386 (sense fUmUfCmAfAmUfAmCfCmAfAmUfUmAfCmAfUmGfAdT; antisense dTfCmAfUmGfUmAfAmUfUmGfGmUfAmUfUmGfAmAdT*dT; siRNA) [compound 2386] | 0.603 ± 0.032 | 0.274 ± 0.087
